# Measurements as given in patent US8450090B2, “Compositions and methods for promoting fatty acid production in plants” (The Regents of the University of Colorado, a body corporate, priority 2009, dated 2013).
# Key:
# Schizochytrium = assay: Forward versus side scatter flow cytometry for oxamate-induced cell death; format: cell-based; settings: at higher concentrations of oxamate, FIG. 3
# Method: Schizochytrium or chlamydomonas were harvested, counted, and resuspended at 10^6 cells/100 μl of PBS containing 2.5% fetal calf serum in preparation for flow cytometric analysis. Lysosensor dyes were used to detect fatty acids in glyoxosomes or oil droplets. Mitochondrial membrane potential was assessed using Mitotracker Red (CM-H2XROS, BD Pharmingen). The cells were resuspended in PBS containing 2.5% fetal calf serum containing a final concentration of 0.5 micromolar Mitotracker dye. The cells were incubated at 37° for 20 minutes, washed twice in PBS containing 2.5% fetal calf serum and analyzed flow cytometrically. Data were acquired on a Coulter Excel flow cytometer (Coulter, Hialeah, Fla.) and analyzed with FloJo software. […] Each sample population was classified for cell size (forward scatter) and complexity (side scatter), gated on a population of interest and evaluated using 30,000 cells.
# Percents: Gating is a tool provided by FloJo software and allows for the analysis of a certain population of cells. […] After the gates were drawn, a percent value of dead cells was calculated by taking the number of dead cells divided by the number of total cells and multiplying by one hundred.
# The bar graph in FIG. 3 depicts the increase in geometric mean of fluorescence in the treated group minus the untreated. […]
# cell wall UCP = settings: wild type strains of C. reinhardtii; prior studies, U.S. Pat. No. 7,105,718; cited from earlier work
SMILES,percentage of cell death (Schizochytrium),cell wall expression of UCP (cell wall UCP)
"NC(=O)C(=O)O [Oxamate, oxamate]",significantly increased percentage of cell death,
CNc1cnn(-c2cccc(C(F)(F)F)c2)c(=O)c1Cl [norflurazon],,did upregulate cell wall expression of UCP
